The source of these data is PMC10454396 (International Journal of Molecular Sciences, 2023).

Converted amounts (≈) assume the structure as drawn. Where two headings read alike, the source gives them in different places.

For assay [1], the system named is Staphylococcus aureus Newman mCherry. The assay is described as follows: MIC, broth microdilution, mCherry-expressing S. aureus Newman. The class given is cell-based. On the procedure: (§1) Cefazolin was obtained from Acros Organics. Ciprofloxacin hydrochloride, linezolid and vancomycin hydrochloride were obtained from Sigma-Aldrich (St. Louis, MO, USA). Tetracycline hydrochloride was obtained from Alfa Aesar. Sorangicin A was provided by HZI, Braunschweig. Stock solutions were prepared in Milli-Q water or dimethyl sulfoxide (DMSO, Sigma-Aldrich). Minimum inhibitory concentrations (MICs) were determined in cation-adjusted Mueller-Hinton broth (MHB2) using the broth microdilution method as recommended by the Clinical and Laboratory Standards Institute (CLSI). The MIC was defined as the lowest concentration of the antibiotic causing complete inhibition of visible growth of the microorganism (CLSI, 2017).
(§2) 1. In vitro characterization of mCherry expressing Staphylococcus aureus Newman
(§3) 1.1 Minimum inhibitory concentration
(§4) Table S1. Antibiotic susceptibility profile of Staphylococcus aureus Newman. WT: wild type. […]

The test system of assay [2] is Staphylococcus aureus Newman WT. The assay is described as follows: MIC, broth microdilution, S. aureus Newman wild type. The class given is cell-based. On the procedure: as §1, §2, §3, §4
For assay [3], the system named is mCherry-expressing S. aureus Newman. The experiment in a line: Zebrafish embryo model of S. aureus yolk infection, antibiotic treatment efficacy. The class given is in vivo, Staphylococcus aureus. As to the method: With the aim to study the in vivo efficacy of drugs, 30 hpf zebrafish embryos were infected with 50 CFU of mCherry-expressing S. aureus Newman. Embryos were then left to recover from injection for two hours and subsequently treated with various reference antibiotics. Antibiotic treatment was performed via bath water immersion as well as via microinjection into the yolk (local treatment) and the caudal vein (systemic treatment) to study whether differences in in vivo activity exist between the three administration routes. Survival was assessed daily until 120 hpf. Additionally, the infection was visualized and quantified by means of fluorescence microscopy at 24 h post treatment (hpt). At the end of every experiment, living embryos (and dead embryos, if possible) were homogenized to determine the remaining bacterial count. Five approved antibiotics from different classes were assessed in vivo. The chosen drugs ought to differ in physicochemical properties, such as molecular weight and polarity, in order to detect a pattern between successful administration routes and the physicochemical properties of the drug. Prior to efficacy assessment, drug-mediated toxicity in zebrafish embryos was investigated using the same administration routes (Figure S3). For microinjection, a fixed dose of 20 to 30 mg/kg was used for each antibiotic. The concentration for bath water immersion was based on the minimum inhibitory concentration (MIC) and the maximum tolerated concentration (MTC) of the drug, whereby it is generally recommended to use 50- to 100-fold the antibacterial MIC to see a positive effect.
Pulled glass capillaries for microinjection (Table S2) were prepared using a micropipette puller (P-1000, Sutter Instrument). Dechorionated and anaesthetized embryos were infected with 50 colony-forming units (CFU) of mCherry-expressing S. aureus Newman by microinjection into the yolk sac at 30 hpf. In order to confirm bacterial numbers, an equal volume of bacterial cells was ejected onto Tryptic Soy Agar (TSA) supplemented with 10 µg/mL chloramphenicol before and after the injection. Antibiotic treatment was performed two hours post infection (hpi) via three different administration routes, namely bath water immersion and microinjection into the yolk sac as well as the caudal vein (CV). The infection procedure and treatment of infected embryos are described in details in the supplementary materials (Table S3).
Embryos were transferred individually to microcentrifuge tubes and washed at least three times with sterile PBS. 200 µL of sterile PBS were added and embryos were mechanically homogenized using a micropestle (Carl Roth, Karlsruhe, Germany). 800 µL of sterile PBS were added to reach a final volume of 1 mL. The homogenates were diluted and plated on tryptic soy agar (TSA). CFU counts were determined after 24 h of incubation at 37 °C.
Embryos were placed in a black 96-well plate (Falcon; Thermo Fisher, Dreieich, Germany) and cryo-anaesthetized by submersion into ice water. Images for quantitative fluorescence analysis were acquired using the following equipment: a fluorescence stereo microscope (M205 FA, Leica Microsystems, Wetzlar, Germany) in combination with a fluorescence illuminator (X-Cite, 200DC, Excelitas Technologies, Waltham, MA, USA) and a microscope camera (DFC7000 T, Leica Microsystems). Quantification of fluorescence was performed using Fiji ImageJ version 2.1.0. Fluorescent Integrated Density (FID) was determined by counting the number of pixels with fluorescence intensity greater than the threshold (10) and multiplying the count with its mean intensity. For confocal imaging, embryos were anaesthetized through immersion in tricaine (945 µM, Sigma-Aldrich) and immobilized in 1.2% low-melting agarose in a flat-bottom 96-well plate. Confocal images and time-lapse series were acquired using the Celldiscoverer 7 with LSM 900 (Zeiss) together with the 5×/0.35 Plan-APOCHROMAT objective.
2. […]

Setting [4] is: Staphylococcus aureus, S. aureus Newman WT, MHB2 broth microdilution, read-out: MIC.
Setting [5] is: bath water immersion 50-100x MIC.
Setting [6] is: caudal vein microinjection 20-30 mg/kg, 2 hpi.
Where [7] appears, read: yolk microinjection 20-30 mg/kg, 2 hpi.
Where [8] appears, read: S. aureus Newman mCherry, MHB2 broth microdilution.
Where [9] appears, read: S. aureus Newman WT, MHB2 broth microdilution.

On to `CC1(C)S[C@@H]2[C@H](NC(=O)[C@H](N)c3ccccc3)C(=O)N2[C@H]1C(=O)O` [ampicillin], for which the MIC (commonly the lowest concentration found to suppress growth) in assay [1] (Staphylococcus aureus, NEWMAN) came to 0.5 µg/mL (≈ 1.43 µM); in assay [2] (setting [4]) it was 0.125 µg/mL (≈ 0.358 µM).
For the compound `Cc1nnc(SCC2=C(C(=O)O)N3C(=O)[C@@H](NC(=O)Cn4cnnn4)[C@H]3SC2)s1` [cefazolin], the “bacterial fluorescence (FID) at 24 hpt” value is on record as “FID values equal to the positive control” in assay [3] (bath water immersion), “No fluorescence was observed” in assay [3] (caudal vein microinjection) and “No fluorescence was observed” in assay [3] (yolk microinjection). Also, the entries for the “effect on survival of infected embryos” value in assay [3] (setting [5]), in assay [3] (setting [6]) and in assay [3] (setting [7]) were “did not show any effect”, “exhibit treatment efficacy” and “exhibit treatment efficacy”, respectively. For the same compound, the “bacteria recovered (CFU plating) at 120 hpf” value (from here on “bacteria recovered”) in assay [3] (caudal vein microinjection) and in assay [3] (yolk microinjection) was “no colonies were recovered” in each case.
As for `O=C(N[C@H](CO)[C@H](O)c1ccc([N+](=O)[O-])cc1)C(Cl)Cl` [chloramphenicol], the MIC in assay [1] (Staphylococcus aureus, NEWMAN) worked out at 64 µg/mL (≈ 198 µM); in assay [2] (setting [4]), 8 µg/mL (≈ 24.8 µM).
As for `O=C(O)c1cn(C2CC2)c2cc(N3CCNCC3)c(F)cc2c1=O` [ciprofloxacin], the “bacterial fluorescence (FID) at 24 hpt” value in assay [3] (bath water immersion) is “a decrease in FID values”; in assay [3] (caudal vein microinjection) it was “No fluorescence was observed”; in assay [3] (yolk microinjection), “No fluorescence was observed”. Moreover, the “effect on survival of infected embryos” value in assay [3] (setting [5]) was “slightly prolong survival”; in assay [3] (setting [6]) it was “exhibit treatment efficacy”; in assay [3] (setting [7]), “exhibit treatment efficacy”. Also, the “embryos died due to infection” value in assay [3] (bath water immersion, 50 CFU yolk infection) is listed as “more than 80%”. In addition, the “bacteria recovered” value in assay [3] (caudal vein microinjection) and in assay [3] (yolk microinjection) was “no colonies were recovered” in each case. Besides, the MIC in assay [2] (setting [4]) is 0.25 µg/mL (≈ 0.754 µM).
With `CC[C@H]1OC(=O)[C@H](C)[C@@H](O[C@H]2C[C@@](C)(OC)[C@@H](O)[C@H](C)O2)[C@H](C)[C@@H](O[C@@H]2O[C@H](C)C[C@H](N(C)C)[C@H]2O)[C@](C)(OC)C[C@@H](C)C(=O)[C@H](C)[C@@H](O)[C@]1(C)O` [clarithromycin], the MIC in assay [2] (setting [4]) worked out at 0.25 µg/mL (≈ 0.334 µM).
For the compound `CCCCCCCCCC(=O)N[C@@H](Cc1c[nH]c2ccccc12)C(=O)N[C@H](CC(N)=O)C(=O)N[C@@H](CC(=O)O)C(=O)N[C@@H]1C(=O)NCC(=O)N[C@@H](CCCN)C(=O)N[C@@H](CC(=O)O)C(=O)N[C@H](C)C(=O)N[C@@H](CC(=O)O)C(=O)NCC(=O)N[C@H](CO)C(=O)N[C@@H]([C@H](C)CC(=O)O)C(=O)N[C@@H](CC(=O)c2ccccc2N)C(=O)O[C@@H]1C` [daptomycin], in assay [2] (setting [4]), the MIC amounted to 2 µg/mL (≈ 1.23 µM).
Same read-out and setting: as for `CC[C@H]1OC(=O)[C@H](C)[C@@H](O[C@H]2C[C@@](C)(OC)[C@@H](O)[C@H](C)O2)[C@H](C)[C@@H](O[C@@H]2O[C@H](C)C[C@H](N(C)C)[C@H]2O)[C@](C)(O)C[C@@H](C)C(=O)[C@H](C)[C@@H](O)[C@]1(C)O` [erythromycin], the figure is 0.25 µg/mL (≈ 0.341 µM).
Still for that read-out and setting: the same measure for `CNC(C)C1CCC(N)C(OC2C(N)CC(N)C(OC3OCC(C)(O)C(NC)C3O)C2O)O1` (centres unmarked) [gentamicin]: 0.5 µg/mL (≈ 1.05 µM).
With `NC[C@H]1O[C@H](O[C@H]2[C@H](O)[C@@H](O[C@H]3O[C@H](CO)[C@@H](O)[C@H](N)[C@H]3O)[C@H](N)C[C@@H]2N)[C@H](O)[C@@H](O)[C@@H]1O` [kanamycin], the MIC in assay [1] (setting [8]) and in assay [2] (setting [9]) was 4 µg/mL (≈ 8.26 µM) each time.
For the compound `CN(C)[C@@H]1C(O)=C(C(N)=O)C(=O)[C@@]2(O)C(O)=C3C(=O)c4c(O)cccc4[C@@](C)(O)[C@H]3C[C@@H]12` [tetracycline], the “bacterial fluorescence (FID) at 24 hpt” value in assay [3] (bath water immersion) is “FID values equal to the positive control”; in assay [3] (caudal vein microinjection), “No fluorescence was observed”; in assay [3] (yolk microinjection), “No fluorescence was observed”. The entries for the “effect on survival of infected embryos” value in assay [3] (setting [5]), in assay [3] (setting [6]) and in assay [3] (setting [7]) were “did not show any effect”, “exhibit treatment efficacy” and “exhibit treatment efficacy”, respectively. Besides, the “bacteria recovered” value in assay [3] (caudal vein microinjection) and in assay [3] (yolk microinjection) was “no colonies were recovered” throughout. In assay [2] (setting [4]), the MIC is 0.25 µg/mL (≈ 0.563 µM).
As for `NC[C@H]1O[C@H](O[C@H]2[C@H](O)[C@@H](O[C@H]3O[C@H](CO)[C@@H](O)[C@H](N)[C@H]3O)[C@H](N)C[C@@H]2N)[C@H](N)C[C@@H]1O` [tobramycin], the MIC in assay [2] (setting [4]) stood at 0.5 µg/mL (≈ 1.07 µM).
Regarding `CN[C@H](CC(C)C)C(=O)N[C@H]1C(=O)N[C@@H](CC(N)=O)C(=O)N[C@H]2C(=O)N[C@H]3C(=O)N[C@H](C(=O)N[C@H](C(=O)O)c4cc(O)cc(O)c4-c4cc3ccc4O)[C@H](O)c3ccc(c(Cl)c3)Oc3cc2cc(c3O[C@@H]2O[C@H](CO)[C@@H](O)[C@H](O)[C@H]2O[C@H]2C[C@](C)(N)[C@H](O)[C@H](C)O2)Oc2ccc(cc2Cl)[C@H]1O` [vancomycin], the figures for the “bacterial fluorescence (FID) at 24 hpt” value in assay [3] (bath water immersion), in assay [3] (caudal vein microinjection) and in assay [3] (yolk microinjection) were “no reduction in bacterial fluorescence”, “no reduction in bacterial fluorescence” and “no development of fluorescence”, respectively. Further, the results for the “effect on survival of infected embryos” value in assay [3] (setting [5]), in assay [3] (setting [6]) and in assay [3] (setting [7]) were “No increased survival”, “No increased survival” and “prevented embryo death”, respectively. Moreover, the survival in assay [3] (yolk microinjection (local treatment) 2 hpi, 50 CFU yolk infection) is 90%. In addition, in assay [3] (yolk-treated embryos), the “colonies recovered at the end of the experiment” value is on record as 0–2500 CFU. The minimal inhibitory concentration (MIC) in assay [1] (Staphylococcus aureus, NEWMAN) is 2 µg/mL (≈ 1.38 µM); in assay [2] (Staphylococcus aureus, NEWMAN), 2 µg/mL (≈ 1.38 µM).
On to teicoplanin, for which the MIC in assay [1] (setting [8]) and in assay [2] (setting [9]) was 1 µg/mL throughout.
